Laboratory results reported in patent US20110059947A1, “ALPHA 7 NICOTINIC AGONISTS AND ANTIPSYCHOTICS” (Targacept, Inc., priority 2008, published 2011).

Assays:
th(tk-)/th(tk-) mice [1] = assay: Prepulse inhibition (PPI) and acoustic startle in th(tk-)/th(tk-) and control mice; type: in vivo
db/db mice = assay: Plasma glucose and body weight in obese db/db mice; type: in vivo; conditions: 1 mg/kg
th(tk-)/th(tk-) mice [2] = assay: Social behavior, nonsocial autogrooming and open field activity; type: in vivo; conditions: 1 mg/kg i.p.
Description: B. […] On testing days, each subject received three tests: a social behavior test with a female, a social behavior test with a male, and an open-field test. There was a 30-minute interval between each test. Social behavior was tested using a variant of the resident-intruder paradigm, in which a stimulus animal was introduced into the subject's homecage for three minutes. Prior to testing the subjects' home cages were not changed for at least four days to allow them to establish the cage as their territory. Female stimulus animals were singly-housed, randomly cycling C57BI/6Js (Jackson Laboratories, Bar Harbor, Me.). Each subject was tested with a different stimulus animal and each stimulus animal was used only once per testing day. Male stimulus animals were singly-housed C57BI/6Js (Jackson Laboratories, Bar Harbor, Me.). Each subject was tested with a different stimulus animal and each stimulus animal was used only once per testing day. A stimulus female was placed into the cage of wild-type (n=8) and tk-/- (n=8) subjects. After three minutes, the stimulus female was removed. Thirty minutes later a stimulus male was placed into the subject's homecage. […] The behavior of the subject was quantified from the videotape using the Observer Mobile (Noldus Information Technologies, Sterling, Va.). […] Movement was analyzed in detail using the Clever Sys. […]

Sprague-Dawley rats = assay: Apomorphine-induced impairment of pre-pulse inhibition; type: in vivo, rat; conditions: haloperidol 0.3 mg/kg i.p., apomorphine 1.0 mg/kg s.c., p<0.001
[3] = db/db mice with fat diet, vs vehicle-treated mice

Cc1ccc(C(=O)N[C@@H]2C3CCN(CC3)[C@H]2Cc2cccnc2)s1 [Compound B, (2S,3R)—N-(2-((3-pyridinyl)methyl)-1-azabicyclo[2.2.2]oct-3-yl)-5-methylthiophene-2-carboxamide]
sensory gating (PPI and acoustic startle response) (th(tk-)/th(tk-) mice [1]; control (normal) mice, Compound B): no effect on control
deficits in sensory gating (PPI and acoustic startle response) (th(tk-)/th(tk-) mice [1]; th(tk-)/th(tk-) mice, Compound B (0.1 and 1.0 mg/kg analyzed)): reverse deficits in sensory gating
blood glucose levels (db/db mice; [3]): significantly decreases
body weight gain (db/db mice; [3]): significantly decreases
time at which effects on glucose and weight gain become apparent (db/db mice; db/db mice, weeks of treatment): 6 weeks

COc1cccc([C@H](O)C2CCN(CCc3ccc(F)cc3)CC2)c1OC [Compound M100907]
PPI (th(tk-)/th(tk-) mice [1]; control mice, M100907 any dose): no effect at any dose
startle response (th(tk-)/th(tk-) mice [1]; control mice, M100907 any dose): no effect at any dose
PPI (th(tk-)/th(tk-) mice [1]; transgenic mice, M100907 middle (0.1 mg/kg) and high (1 mg/kg) doses vs vehicle): increases of PPI
startle response (th(tk-)/th(tk-) mice [1]; treated transgenic groups vs vehicle, M100907): significant decrease of startle response
time spent investigating the stimulus animal (th(tk-)/th(tk-) mice [2]; TK- mice): significantly increased
investigation time of stimulus animal (th(tk-)/th(tk-) mice [2]; wild-type animals): no effect on investigation time

CN1CCN(C2=Nc3cc(Cl)ccc3Nc3ccccc32)CC1 [clozapine]
PPI (th(tk-)/th(tk-) mice [1]; clozapine 3 mg/kg): no effect
startle response (th(tk-)/th(tk-) mice [1]; clozapine 3 mg/kg): no effect

OCCN1CCN(CC/C=C2/c3ccccc3Sc3ccc(C(F)(F)F)cc32)CC1 [flupenthixol]
startle response (th(tk-)/th(tk-) mice [1]; control mice, flupenthixol 1.0 mg/kg vs saline): decreased
PPI (th(tk-)/th(tk-) mice [1]; control mice, flupenthixol 0.25, 0.5, 1.0 mg/kg): no effect of dose
startle response (th(tk-)/th(tk-) mice [1]; th(tk-)/th(tk-) mice, flupenthixol 1.0 mg/kg vs saline): decreased
PPI (th(tk-)/th(tk-) mice [1]; th(tk-)/th(tk-) mice, flupenthixol 0.25, 0.5, 1.0 mg/kg, all three stimulus intensities, P<0.01): increased PPI

O=C(CCCN1CCC(O)(c2ccc(Cl)cc2)CC1)c1ccc(F)cc1 [haloperidol, reference compound]
PPI deficits induced by apomorphine (Sprague-Dawley rats): significantly reversed

OCCOCCN1CCN(C2=Nc3ccccc3Sc3ccccc32)CC1 [quetiapine]
startle response (th(tk-)/th(tk-) mice [1]; control mice, quetiapine any dose): no main effect
PPI (th(tk-)/th(tk-) mice [1]; control mice, quetiapine any dose examined): no significant main effect
PPI (th(tk-)/th(tk-) mice [1]; th(tk-)/th(tk-) mice, quetiapine 7.0 mg/kg, p<0.001): normalized the reduced PPI
PPI (th(tk-)/th(tk-) mice [1]; th(tk-)/th(tk-) mice, quetiapine lower doses (below 7.0 mg/kg)): no effect
startle response (th(tk-)/th(tk-) mice [1]; transgenic mice, all doses of quetiapine vs saline, p<0.05): significant decrease in startle response
PPI, main effect (th(tk-)/th(tk-) mice [1]; transgenic th(tk-)/th(tk-) mice, quetiapine 3.0 mg/kg alone): no significant main effect
